# Data as given in article PMC7179907, “Novel AXL-specific inhibitor ameliorates kidney dysfunction through the inhibition of epithelial-to-mesenchymal transition of renal tubular cells” (PLoS ONE, 2020).
# How the values were obtained:
# [1] = target: T1, AXL (Homo sapiens, UniProt P30530); assay: Protein kinase assay, AXL; format: biochemical; details: recombinant AXL, 1.5 hours treatment, n = 2; read-out: IC50 against AXL kinase activity
# T1 construct: purchased Carna Biosciences (Kobe, Japan)
# T1 sequence (P30530 26-894): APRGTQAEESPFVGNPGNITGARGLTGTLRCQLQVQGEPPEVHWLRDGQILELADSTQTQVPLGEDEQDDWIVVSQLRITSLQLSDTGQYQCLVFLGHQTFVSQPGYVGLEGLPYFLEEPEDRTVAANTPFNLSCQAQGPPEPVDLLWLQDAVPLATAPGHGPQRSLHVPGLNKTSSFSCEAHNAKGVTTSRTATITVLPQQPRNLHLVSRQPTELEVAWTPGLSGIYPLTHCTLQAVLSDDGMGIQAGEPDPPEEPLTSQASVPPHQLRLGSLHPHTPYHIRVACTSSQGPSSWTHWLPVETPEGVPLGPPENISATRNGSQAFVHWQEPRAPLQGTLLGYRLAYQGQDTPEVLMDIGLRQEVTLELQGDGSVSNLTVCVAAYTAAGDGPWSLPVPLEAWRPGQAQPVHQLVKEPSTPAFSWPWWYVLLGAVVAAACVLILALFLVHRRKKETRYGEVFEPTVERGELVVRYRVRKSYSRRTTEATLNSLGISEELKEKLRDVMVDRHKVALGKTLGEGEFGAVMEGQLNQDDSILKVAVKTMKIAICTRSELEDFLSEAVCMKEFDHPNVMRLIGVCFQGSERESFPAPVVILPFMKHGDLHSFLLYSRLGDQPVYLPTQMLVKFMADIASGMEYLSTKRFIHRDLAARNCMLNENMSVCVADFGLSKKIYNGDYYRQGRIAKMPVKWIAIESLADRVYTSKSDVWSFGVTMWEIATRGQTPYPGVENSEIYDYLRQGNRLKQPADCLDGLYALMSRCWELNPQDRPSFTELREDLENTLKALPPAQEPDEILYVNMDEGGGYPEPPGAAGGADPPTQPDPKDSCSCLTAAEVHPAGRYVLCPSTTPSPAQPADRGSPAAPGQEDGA
# Source text: (§1) CH5451098 (N-cyclopropyl-2-[2-[8-[(2R)-2,3-dihydroxypropoxy]-6,6-dimethyl-11-oxo-naphtho[2,3-b]benzofuran-3-yl]ethynyl]pyridine-4-carboxamide), a selective inhibitor of AXL, was synthesized at Chugai Pharmaceutical Co. Ltd. (Fig 1). The following recombinant proteins were used for the kinase assay: AXL, Mer, Tyro3, Flt3, JAK2, EGFR, HER2, KIT, PDGFRβ, FGFR2, KDR, MET, ALK, EPHA2, EPHB2, FAK, SRC, ABL, ERK1, PKA, AKT1, PKACα, PKACβ1, AurA, CHK1, CHK2, MNK1, CDK1, and p38α from Carna Biosciences (Kobe, Japan), and Raf1 from Thermo Fisher Scientific (Waltham, MA). Recombinant mouse TGFβ1 (mTGFβ1) and recombinant mouse Gas6 (mGas6) were purchased from R&D systems. All other chemicals were of the highest purity available. The following primary antibodies were used for this study: anti-beta catenin (8480), anti-zinc finger E-box-binding homeobox 1 (Zeb1) (3396), anti-glyceraldehyde-3-phosphate dehydrogenase (GAPDH) (8884) antibody from Cell Signaling Technology (Danvers, MA). […]
# (§2) Protein kinases were purchased from Carna Biosciences or Millipore. The inhibitory activity against each kinase was evaluated as described previously.
# (§3) Fig 2 In vitro kinase inhibitory activity of CH5451098. […] Enzyme inhibitory activity was calculated by the formula (1-T/C) x 100 (%), where T represents the measured value of the wells with a compound and C represents that of wells without a compound (n = 2). […]
# [2] = system: 30 kinases including the TAM family (Tyro3, AXL and, Mer) of receptor tyrosine kinases; assay: 30 kinase inhibitory assays (selectivity); format: biochemical; details: Fig 2B
# Source text: as §1, §2, §3
# [3] = system: NEP25 mice; assay: NEP25 mouse model of glomerular nephritis (LMB2-induced); format: in vivo
# Description: NEP25 mice, heterozygous podocyte-specific hCD25 transgenic mice, were bred in Tokai University and kindly provided by Matsusaka et al.. All mice were kept in well-controlled animal housing with free access to water and pellet food. Animal procedures and protocols were in accordance with the Guidelines for the Care and Use of Laboratory Animals at Chugai Pharmaceutical Co. Ltd. and approved by the Institutional Animal Care and Use Committee.
# To induce disease, NEP25 mice were injected with 0.8 μg/kg of the immunotoxin LMB2 (provided from National Institutes of Health, USA) via the tail vein, except in the normal control group (n = 4). CH5451098 powder was suspended in a 0.5% carboxymethyl cellulose solution to prepare 1.0 mg/mL. Mice were divided into 2 groups and were orally administered vehicle (disease group, n = 10) or CH5451098 10 mg/kg once daily for 21 days (CH5451098 group, n = 10) from one day before LMB2 injection. The dose of CH5451098 was set high enough to inhibit AXL kinase activity throughout the day. Mice not treated with LMB2 were used as normal control.
# Blood and urine samples were collected on day 7, 14, or, 21 after LMB2 injection. Blood samples were collected from the abdominal portion of the vena cava under isoflurane anesthesia and were centrifuged to obtain serum samples. Urine samples were collected for 24 hours using a metabolic cage. The mice were euthanized by exsanguination under isoflurane anesthesia at day 22 after LMB2 injection. Kidney tissues were dissected for pathology (formalin-fixed or methyl carnoy-fixed) and kidney cortex samples were collected and snap frozen in liquid nitrogen.
# Serum urea nitrogen (BUN), creatinine (sCre) and urinary albumin (uAlb), N-Acetyl-beta-D Glucosaminidase (NAG), and creatinine were measured using an automatic analyzer (Hitachi 7100 Autoanlayzer, Hitachi Co., Ltd. Tokyo, Japan).
# RNA samples were extracted from frozen mouse kidney cortex or NRK-52E cells using an RNaesy Mini kit (QIAGEN, Hilden, Germany). cDNA were synthesized from RNA using a reverse transcription kit (Roche applied science, Penzberg, Germany). Expression levels were measured by a LightCycler 480 (Roche Applied science) using TaqMan probe/primer sets for each gene (Thermo Fisher Scientific). […]
# [4] = system: NRK-52E cells; assay: EMT induced by TGFβ1 and Gas6 in NRK-52E cells (mRNA expression); format: cell-based, rat; details: CH5451098 1 nmol/L; mTGFβ1 2 ng/mL and mGas6 500 ng/mL; 2 hours
# Description: RNA samples were extracted from frozen mouse kidney cortex or NRK-52E cells using an RNaesy Mini kit (QIAGEN, Hilden, Germany). cDNA were synthesized from RNA using a reverse transcription kit (Roche applied science, Penzberg, Germany). Expression levels were measured by a LightCycler 480 (Roche Applied science) using TaqMan probe/primer sets for each gene (Thermo Fisher Scientific).
# NRK-52E cell line derived from rat renal tubular epithelial cells was purchased from ATCC (Manassas, VA) and cultured in Dulbecco’s modified eagle’s medium with high glucose media supplemented with 5% FBS at 37°C under 5% CO 2 and 95% air.
# NRK-52E cells were seeded onto a collagen-coated plate and were cultured over-night. After reaching subconfluence, cells were cultured in serum restricted medium (0.5% FBS) for 6 hours. Then the cells were stimulated with recombinant mTGFβ1 (2 ng/mL) and/or recombinant mGas6 (500 ng/mL) followed by treatment with or without CH5451098 (1 nmol/L) for 15 minutes. The cells were lysed with RLT buffer (Qiagen) after 2 hours incubation with stimulants and mRNA was purified using RNeasy mini kit (Qiagen).
# [5] = 10 mg/kg once daily 21 days, kidney cortex, vs disease control
# [6] = 10 mg/kg once daily 21 days, vs disease control
# [7] = 10 mg/kg orally once daily 21 days, blood 24 hours after final administration, mean ± SE, p<0.01 vs disease control
# [8] = kidney cortex, 3 weeks after disease induction, vs disease control
structure (smiles),measurement,setting,value
"CC1(C)c2cc(OC[C@H](O)CO)ccc2C(=O)c2c1oc1cc(C#Cc3cc(C(=O)NC4CC4)ccn3)ccc21 [CH5451098, N-cyclopropyl-2-[2-[8-[(2R)-2,3-dihydroxypropoxy]-6,6-dimethyl-11-oxo-naphtho[2,3-b]benzofuran-3-yl]ethynyl]pyridine-4-carboxamide]",IC50,[1],3.8 nM
same,selectivity against other kinases,[2],strongest inhibitory activity towards AXL among 30 kinases
same,uAlb excretion,"[3]; 10 mg/kg once daily 21 days, 3 weeks after disease induction, vs disease control",significantly decreased
same,Renal LCN2 mRNA,[3]; [5],significantly decreased
same,kidney Col1a1 mRNA,[3]; [5],significantly reduced
same,kidney OH-Pro content,[3]; [5],suppressed
same,kidney Pai1 mRNA,[3]; [5],significantly inhibited
same,kidney Snai1 mRNA,[3]; [5],did not reduce
same,kidney TGFβ1 mRNA expression,[3]; [5],only a partial reduction
same,kidney Twist1 mRNA,[3]; [5],tended to suppress
same,kidney Zeb1 mRNA,[3]; [5],suppressed
same,Urinary NAG excretion,"[3]; 10 mg/kg once daily 21 days, urine 0 to 24 hours after final administration, vs disease control",significantly inhibited
same,abundance of stained connective tissue (Sirius red and Masson's Trichrome staining),[3]; [6],inhibited
same,destruction of glomerular structure (periodic acid-Schiff stain),[3]; [6],ameliorated
same,"tubulointerstitial fibrosis (semi-quantitative score, Masson's trichrome)",[3]; [6],significantly suppressed
same,BUN,[3]; [7],55 ± 5.0 mg/dL
same,Serum creatinine (sCre),[3]; [7],0.15 ± 0.019 mg/dL
same,uAlb leakage,"[3]; 2 weeks after disease induction, compared to DC group, data not shown",no effect
same,kidney Zeb1 protein level (western blotting),[3]; [8],reduced
same,kidney beta-catenin protein level (western blotting),[3]; [8],reduced
same,LCN2 mRNA induced by Gas6 and TGFβ1,[4],inhibited
same,Snai1 mRNA induced by Gas6 along with TGFβ1,[4],markedly inhibited
same,Twist1 mRNA induced by Gas6 along with TGFβ1,[4],markedly inhibited
same,Zeb1 mRNA induced by Gas6 along with TGFβ1,[4],markedly inhibited
same,enhancement of Pai1 mRNA,[4],suppressed
same,enhancement of TGFβ1 mRNA,[4],suppressed
